This assay deals with T1, SMARCA2 (Homo sapiens, UniProt P51531).
T1 construct: endogenous in cells; host or cells: HT1080 (CRISPR HiBiT knock-in clone, generated in house)
The assay is described as follows: SMARCA2 HiBiT degradation assay (cellular). In kind it is cell-based. Conditions: table head names A549; for DC50: 6 h incubation, HiBiT-tagged SMARCA2, luminescence read-out, read-out: HiBit A549 SMARCA2 IP (nM) 6 h; for Emax: A549, 6 h incubation, Emax = amount of residual protein remaining in the cell following compound treatment.

T1 sequence (P51531 whole entry): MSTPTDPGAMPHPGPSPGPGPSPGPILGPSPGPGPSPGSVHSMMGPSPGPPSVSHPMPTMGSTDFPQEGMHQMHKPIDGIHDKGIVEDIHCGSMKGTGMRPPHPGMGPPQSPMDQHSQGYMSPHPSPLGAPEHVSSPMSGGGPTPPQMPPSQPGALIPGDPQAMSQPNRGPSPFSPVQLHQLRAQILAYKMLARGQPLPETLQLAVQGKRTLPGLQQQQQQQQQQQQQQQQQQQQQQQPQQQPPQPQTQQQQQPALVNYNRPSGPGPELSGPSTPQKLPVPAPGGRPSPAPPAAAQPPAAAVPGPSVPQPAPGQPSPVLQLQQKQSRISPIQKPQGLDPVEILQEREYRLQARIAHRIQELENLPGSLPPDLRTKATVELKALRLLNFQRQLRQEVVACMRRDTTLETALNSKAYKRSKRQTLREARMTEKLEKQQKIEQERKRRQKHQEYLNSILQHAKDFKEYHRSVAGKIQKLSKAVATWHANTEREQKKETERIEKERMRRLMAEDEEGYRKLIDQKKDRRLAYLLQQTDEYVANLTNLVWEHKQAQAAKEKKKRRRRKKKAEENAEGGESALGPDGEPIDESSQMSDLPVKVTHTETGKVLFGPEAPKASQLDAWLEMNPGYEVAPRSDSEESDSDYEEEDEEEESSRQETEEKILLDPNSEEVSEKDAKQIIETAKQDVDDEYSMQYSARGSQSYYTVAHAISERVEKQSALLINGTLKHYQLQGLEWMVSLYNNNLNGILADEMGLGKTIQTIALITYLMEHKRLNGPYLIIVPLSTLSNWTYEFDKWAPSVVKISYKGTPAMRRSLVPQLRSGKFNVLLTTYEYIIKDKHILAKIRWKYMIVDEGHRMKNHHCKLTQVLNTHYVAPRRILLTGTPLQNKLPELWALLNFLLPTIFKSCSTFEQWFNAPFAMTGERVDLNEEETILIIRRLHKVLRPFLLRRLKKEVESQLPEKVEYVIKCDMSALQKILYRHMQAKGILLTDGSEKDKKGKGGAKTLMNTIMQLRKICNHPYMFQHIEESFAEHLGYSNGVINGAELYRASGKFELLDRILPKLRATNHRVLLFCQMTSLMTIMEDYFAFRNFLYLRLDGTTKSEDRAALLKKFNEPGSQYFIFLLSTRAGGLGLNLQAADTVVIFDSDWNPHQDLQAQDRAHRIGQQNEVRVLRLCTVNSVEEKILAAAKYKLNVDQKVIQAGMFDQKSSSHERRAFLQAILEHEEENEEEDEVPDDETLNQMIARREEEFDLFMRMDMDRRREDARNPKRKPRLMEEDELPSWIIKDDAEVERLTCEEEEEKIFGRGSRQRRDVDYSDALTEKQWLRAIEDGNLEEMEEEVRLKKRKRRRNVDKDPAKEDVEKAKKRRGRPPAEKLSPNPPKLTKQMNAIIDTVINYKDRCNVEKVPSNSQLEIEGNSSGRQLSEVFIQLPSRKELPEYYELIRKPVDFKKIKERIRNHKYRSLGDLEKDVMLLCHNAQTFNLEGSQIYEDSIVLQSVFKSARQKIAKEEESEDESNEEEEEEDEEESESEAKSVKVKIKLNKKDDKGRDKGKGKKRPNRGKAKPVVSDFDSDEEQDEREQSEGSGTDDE

`Nc1nnc(-c2ccccc2O)cc1N1CC2CCC(C1)N2c1cccc(OCCN2CCN(CCCC3CCN(c4ccc5c(c4)C(=O)N(C4CCC(=O)NC4=O)C5=O)CC3)CC2)c1` (racemic) [Example 143, rac-5-[4-[3-[4-[2-[3-[3-[3-amino-6-(2-hydroxyphenyl)pyridazin-4-yl]-3,8-diazabicyclo[3.2.1]octan-8-yl]phenoxy]ethyl]piperazin-1-yl]propyl]-1-piperidyl]-2-(2,6-dioxo-3-piperidyl)isoindoline-1,3-dione]: the DC50 came to 2 nM and the Emax was determined as 8%.

In the case of `Nc1nnc(-c2ccccc2O)cc1N1CC2CCC(C1)N2c1cccc(OCCN2CCN(C(=O)CCCNC(=O)COc3cccc4c3C(=O)N(C3CCC(=O)NC3=O)C4=O)CC2)c1` (racemic) [Example 17, rac-N-[4-[4-[2-[3-[3-[3-amino-6-(2-hydroxyphenyl)pyridazin-4-yl]-3,8-diazabicyclo[3.2.1]octan-8-yl]phenoxy]ethyl]piperazin-1-yl]-4-oxo-butyl]-2-[2-(2,6-dioxo-3-piperidyl)-1,3-dioxo-isoindolin-4-yl]oxy-acetamide], the DC50 worked out at 1440 nM and the Emax is 64%.

Regarding `Nc1nnc(-c2ccccc2O)cc1N1CC2CCC(C1)N2c1cccc(OCCN2CCN(C(=O)C3CN(c4ccc5c(c4)C(=O)N(C4CCC(=O)NC4=O)C5=O)C3)CC2)c1` (racemic) [Example 60, rac-5-[3-[4-[2-[3-[3-[3-amino-6-(2-hydroxyphenyl)pyridazin-4-yl]-3,8-diazabicyclo[3.2.1]octan-8-yl]phenoxy]ethyl]piperazine-1-carbonyl]azetidin-1-yl]-2-(2,6-dioxo-3-piperidyl)isoindoline-1,3-dione], the DC50 was found to be 18 nM and the maximum response (Emax) was determined as 32%.

As for `Nc1nnc(-c2ccccc2O)cc1N1CC(Oc2cccc(CN3CCN(C(=O)CCCCCCNc4cccc5c4C(=O)N(C4CCC(=O)NC4=O)C5=O)CC3)c2)C1` (centres unmarked) [Example 30, 4-[[7-[4-[[3-[1-[3-amino-6-(2-hydroxyphenyl)pyridazin-4-yl]azetidin-3-yl]oxyphenyl]methyl]piperazin-1-yl]-7-oxo-heptyl]amino]-2-(2,6-dioxo-3-piperidyl)isoindoline-1,3-dione], the DC50 was 92 nM and the Emax was 63%.

For `Nc1nnc(-c2ccccc2O)cc1N1CC(Oc2cccc(N3CCN(C(=O)C4CCN(c5ccc6c(c5)C(=O)N(C5CCC(=O)NC5=O)C6=O)CC4)CC3)c2)C1` (racemic) [Example 152, rac-5-[4-[4-[3-[1-[3-amino-6-(2-hydroxyphenyl)pyridazin-4-yl]azetidin-3-yl]oxyphenyl]piperazine-1-carbonyl]-1-piperidyl]-2-(2,6-dioxo-3-piperidyl)isoindoline-1,3-dione], the DC50 came out at 5 nM and the Emax was found to be 42%.

For the compound `Nc1nnc(-c2ccccc2O)cc1N1CC(Oc2ccc(CN3CCN(C(=O)CCCCCCNc4cccc5c4C(=O)N(C4CCC(=O)NC4=O)C5=O)CC3)cc2)C1` (centres unmarked) [Example 67, 4-[[7-[4-[[4-[1-[3-amino-6-(2-hydroxyphenyl)pyridazin-4-yl]azetidin-3-yl]oxyphenyl]methyl]piperazin-1-yl]-7-oxo-heptyl]amino]-2-(2,6-dioxo-3-piperidyl)isoindoline-1,3-dione], the DC50 came out at 37 nM and the Emax came out at 54%.

As to `Nc1nnc(-c2ccccc2O)cc1N1CC2CCC(C1)N2c1cccc(OCCN2CCN(C(=O)CNC(=O)C3CCN(c4ccc5c(c4)C(=O)N(C4CCC(=O)NC4=O)C5=O)CC3)CC2)c1` (racemic) [Example 141, rac-N-[2-[4-[2-[3-[3-[3-amino-6-(2-hydroxyphenyl)pyridazin-4-yl]-3,8-diazabicyclo[3.2.1]octan-8-yl]phenoxy]ethyl]piperazin-1-yl]-2-oxo-ethyl]-1-[2-(2,6-dioxo-3-piperidyl)-1,3-dioxo-isoindolin-5-yl]piperidine-4-carboxamide], the DC50 amounted to 9 nM and the Emax is 19%.

Consider `Nc1nnc(-c2ccccc2O)cc1OC1CCCN(c2ccc(N3CCN(CCCCCCCCCn4cc(CCCNc5cccc6c5C(=O)N(C5CCC(=O)NC5=O)C6=O)nn4)CC3)cc2)C1` (centres unmarked) [Example 109, 4-[3-[1-[9-[4-[4-[3-[3-amino-6-(2-hydroxyphenyl)pyridazin-4-yl]oxy-1-piperidyl]phenyl]piperazin-1-yl]nonyl]triazol-4-yl]propylamino]-2-(2,6-dioxo-3-piperidyl)isoindoline-1,3-dione], for which the DC50 worked out at 103 nM and the Emax was 29%.

In the case of `Nc1nnc(-c2ccccc2O)cc1N1CCC(CNC(=O)CC2CCN(c3ccc4c(c3)C(=O)N(C3CCC(=O)NC3=O)C4=O)CC2)(c2ccccc2)CC1` (centres unmarked) [Example 77, N-((1-(3-amino-6-(2-hydroxyphenyl)pyridazin-4-yl)-4-phenylpiperidin-4-yl)methyl)-2-(1-(2-(2,6-dioxopiperidin-3-yl)-1,3-dioxoisoindolin-5-yl)piperidin-4-yl)acetamide], the DC50 worked out at 77 nM and the Emax worked out at 57%.

`Nc1nnc(-c2ccccc2O)cc1N1CCC(C(=O)N2CCC3(CC2)CN(C(=O)CC2CCN(c4ccc5c(c4)C(=O)N(C4CCC(=O)NC4=O)C5=O)CC2)CCO3)(c2ccccc2)CC1` (centres unmarked) [Example 168, 5-(4-(2-(9-(1-(3-amino-6-(2-hydroxyphenyl)pyridazin-4-yl)-4-phenylpiperidine-4-carbonyl)-1-oxa-4,9-diazaspiro[5.5]undecan-4-yl)-2-oxoethyl)piperidin-1-yl)-2-(2,6-dioxopiperidin-3-yl)isoindoline-1,3-dione]: the DC50 amounted to 111 nM and the Emax stood at 60%.

For `CC(Nc1cccc2c1C(=O)N(C1CCC(=O)NC1=O)C2=O)c1cn(CCCCCCCCCN2CCN(c3ccc(N4CCC[C@H](Oc5cc(-c6ccccc6O)nnc5N)C4)cc3)CC2)nn1` (mixture of isomers) [Example 201, 2-(2,6-dioxo-3-piperidyl)-4-[1-[1-[9-[4-[4-[rac-(3S)-3-[3-amino-6-(2-hydroxyphenyl)pyridazin-4-yl]oxy-1-piperidyl]phenyl]piperazin-1-yl]nonyl]triazol-4-yl]ethylamino]isoindoline-1,3-dione], the DC50 is 79 nM and the maximal effect (Emax) is 37%.

For `Nc1nnc(-c2ccccc2O)cc1OC1CCCN(c2ccc(OCCN3CCN(C(=O)CCCCCCCCCCCCC(=O)N4CCN(c5ccc(NC6CCC(=O)NC6=O)cc5)CC4)CC3)cc2)C1` (centres unmarked) [Example 25, 3-[4-[4-[14-[4-[2-[4-[3-[3-amino-6-(2-hydroxyphenyl)pyridazin-4-yl]oxy-1-piperidyl]phenoxy]ethyl]piperazin-1-yl]-14-oxo-tetradecanoyl]piperazin-1-yl]anilino]piperidine-2,6-dione], the DC50 worked out at 614 nM and the maximal effect (Emax) was found to be 59%.

Turning to `Nc1nnc(-c2ccccc2O)cc1O[C@@H]1CCCN(c2ccc(N3CCN(C(=O)CCCCCCCCn4cc(CNc5cccc6c5C(=O)N(C5CCC(=O)NC5=O)C6=O)nn4)CC3)cc2)C1` (mixture of isomers) [Example 62, 2-(2,6-dioxo-3-piperidyl)-4-[[1-[9-oxo-9-[4-[4-[rac-(3R)-3-[3-amino-6-(2-hydroxyphenyl)pyridazin-4-yl]oxy-1-piperidyl]phenyl]piperazin-1-yl]nonyl]triazol-4-yl]methylamino]isoindoline-1,3-dione], the DC50 came out at 124 nM and the Emax was 33%.

These data come from patent publication US20230024096A1, “BIFUNCTIONAL COMPOUNDS FOR THE TREATMENT OF CANCER” (Hoffmann-La Roche Inc., priority 2019, published 2023).
